Measurements: patent publication US5242915A, “Formulation useful for the inhibition of massive release of cerebral glutamate” (Shionogi & Co., Ltd., priority 1991, dated 1993)
Entries after “also recorded” stand apart in the source; their conditions may differ. Like-named read-outs stand apart in the source and are kept apart here.

Columns and labels:
vascular smooth muscle = conditions: background statement; cited from earlier work
[1] = cited from earlier work; for antihypertensive, peripheral, cerebral and coronary vasodilating actions: background statement
[2] = test system: cerebral release of glutamate; conditions: comparison, no data shown, cited from earlier work
DBA/2 Mouse = assay: Ultrasonically (sound)-induced convulsion in DBA/2 mouse; assay type: in vivo, mouse (DBA/2); conditions: for ED50: Mus musculus, one hour before ultrasonic treatment (70-90 db, 1 min), probit method, read-out: ED50 (anti-convulsant effect); for anti-convulsant effect, in words: sound/ultrasonically induced convulsion; for anticonvulsive effect (general statement): FIG. 3 and Table 1
Description: Animal: Ten mice consisting of five each of male and female DBA/2 mice (weighing from 7 to 11 g) bred at the Aburahi Laboratories (Shionogi) at three weeks of age were used in a group.
One hour before the ultrasonic treatment, each mouse of test group orally received S-312-d as a solution in polyethylene glycol 400. To each mouse of control groups was orally administered either of Nicardipine, as a solution in polyethylene glycol 400, S-312-1, Nimodipine or Flunarizine, as a suspension in gum arabic. Convulsion was induced in mouse by an ultrasonic treatment (70-90 db, 1 min) and the number of tetanic death was observed. ED50 value of anti-convulsant effect of each compound was calculated by probit method using the […] as an indication.

[3] = NMDA channel antagonist; cited from earlier work
[4] = test system: massive release of cerebral glutamate in hippocampal CAI region; assay: Effect on the ischemic release of glutamate in hippocampal CAI region (BCAO, microdialysis); assay type: in vivo, rat (SHRSP, stroke-prone spontaneously Hypertensive Rats); conditions: intraduodenal, 40 min before BCAO, S-312-d 0.3 mg/kg; for inhibition of the massive release of glutamate during BCAO: nilvadipine 3 mg/kg, nimodipine 3 mg/kg, FIG. 2
Description: Thus, an experimental cerebral ischemia was caused in SHRSPs by the occlusion of both common carotid arteries (hereinafter, referred to as BCAO). During the ischemic period, a massive release of glutamate in hippocampal CAI region was observed (see, FIG. 1).
Reference compound: nilvadipine, and nimodipine Animal: Five male SHRSP bred at the Aburahi Laboratories (Shionogi) at ten to twelve weeks of age were used in a group. Animals were fed CA-1 (Nihon Clea) and tap water ad libitum.
Hippocampus CAI region was made ischemia by the occlusion of both common carotid arteries (BCAO) into rats as follows:
Rats were anesthetized with halothane (3%) and the cervical region proximal to abdomen was incised to expose the common carotid arteries. Both arteries were occluded with nylon threads with each end exposed at the back of the neck through either of two holes of a tube (double lumen PE tube, Natsume Seisakusho, & Co.). Occlusion was induced in the both common carotid arteries by pulling strongly each exposed end of threads. BCAO was stopped by gradually pulling down the each end of threads passed under arteries proximal to abdomen. During the ischemic period, the halothane inhalation was stopped.
The determination of the regional cerebral blood flow was conducted using a laser doppler tissue flow meter (LFA-2, Biomedical Science, Japan) with a needle-type sensor (450 μm in diameter) inserted into the hippocampal CA1 region opposite to the site where a microdialysis probe had been fixed. The blood flow during BCAO was estimated as almost negligible on the assumption that the blood flow after the death of rat is "0".
S-312-d (0.3 mg/kg), nilvadipine (3 mg/kg), or nimodipine (3 mg/kg) was dissolved into polyethylene glycol 400 and administered into duodenum in each rat at 40 min before BCAO.
Under the anesthesia with halothane (1-2%), rats were fixed on cerebral stereotaxic frame and equipped with an artificial respirator (1 cc/100 gbw×60 times/min), while being maintained at 37 ° C by settling a heating pad beneath the lower abdominal region. A hole was drilled on the exposed skull and a microdialysis probe (CMA/10, membrane length 2 mm, BAS, Sweden) was inserted gently. Measurement was started after 3 hr from the surgery in order to avoid the influence of tissue damage. The probe was perfused with Ringer's solution at a flow rate of 2 μl/min by a microdialysis pump (CMA/100, BAS, Sweden). The dialysates were collected for each 5-min perfusion and pooled. Sampling was started at 10 min before the BCAO. BCAO was continued for 20 min when it was stopped by loosening […] threads to allow cerebral circulation. The sampling was continued for 20 min after the discontinuation of the BCAO. Samples were then subjected to quantitative analysis for glutamate without further treatments.
The concentration of glutamate was determined by HPLC substantial in accordance with the HPLC-ECD method of Donzanti et al. (Life Sci. 43: 913 (1988)) The glutamate-containing sample was reacted with o-phthlaldehyde/β-mercaptoethanol solution for 2 min and injected into a reverse-phase column and eluted under the following conditions. The eluate was then analyzed for the presence of glutamate by an electrochemical measurement of oxidation-reduction current.
Column: C 18, particle size: 3 μm, 8 cm×4.6 mm
Mobile phase: a mixture of 0.1M phosphate buffer (pH 6.4), 0.13 mM Na2 EDTA, and 22% MeOH

[5] = test system: pyramidal neurons of the hippocampal CAI region; assay: Delayed neuronal death during cerebral ischemia (density of living pyramidal neurons); assay type: in vivo, rat (SHRSP); conditions: for Density of Neurons, animals with 40-80 n/mm / Density of Neurons, animals with 80-120 n/mm / Density of Neurons, animals with <40 n/mm / Density of Neurons, animals with >120 n/mm: 7th day; for Density of Neurons, mean ± S.E.M: normal 160 ± 9, control 69 ± 10
Description: Animal: eight to twelve (n=8-12) male SHRSP bred at the Aburahi Laboratories (Shionogi) were used in a group. Animals were fed CA-1 (Nihon Clea) and tap water ad libitum.
S-312-d was dissolved into polyethylene glycol 400 solution and intraperitoneally administered to a SHRSP at 60 min before the introduction of a global cerebral ischemia. Cerebral ischemia was then caused in each rat for 20 min and stopped to allow cerebral circulation in the same manner as the above Experiment 1. For the histological observation on the delayed neuronal death, a fixation of tissue was conducted by perfusing the animal from the left ventricle using 4% paraformaldehyde at a flow rate of 10 ml/min by means of perista pump (AC-2110, ATTA) on the 7th day from the ischemia. After the removal of brain, cerebral region containing hippocampus was embedded in paraffin, from which sliced preparations of 4 μm thick were prepared. Each cerebral preparation was stained with hematoxylin-eosin and the density of the living pyramidal neurons (n/mm) was determined by counting the number of neurons per 1 mm length of the hippocampal CAI region under a light microscope. The data were expressed as the mean ±S.E.M. For the purpose of comparison, SHRSPs with or without ischemic maneuvering were both treated with propylene glycol, in exactly the same manner as the above.

[6] = oral, one hour before ultrasonic treatment
[7] = treated group (I), 0.01 mg/kg i.p. 60 min before ischemia (20 min), n = 12
[8] = treated group (II), 0.1 mg/kg i.p. 60 min before ischemia (20 min), n = 13

In the case of `COC(=O)C1=C(C)Nc2scc(CC(C)C)c2C1c1cccc([N+](=O)[O-])c1` (racemic) [S-312, methyl 4,7-dihydro-3-isobutyl-6-methyl-4-(3-nitrophenyl)thieno[2,3-b]pyridine-5-carboxylate], the “Ca-blocking effect on vascular smooth muscle” value (vascular smooth muscle) is listed as “selective Ca-blocking effect on vascular smooth muscle”, the adverse reactions ([1]; U.S. Pat. No. 4,703,051) is listed as “lesser adverse reactions” and the “vasodilating, antihypertensive and coronary vasodilating effect” value ([1]; U.S. Pat. No. 4,703,051) is listed as “potent antihypertensive and coronary vasodilating effect”. The “antihypertensive, peripheral, cerebral and coronary vasodilating actions” value [1] was “exhibit antihypertensive activity, as well as peripheral, cerebral, and coronary vasodilating actions”.
In the case of `NCC(CC(=O)O)c1ccc(Cl)cc1` (stereo not shown) [Baclofen], the “effect on ischemic release of glutamate” value [2] is listed as “not the ischemic release”, the “effect on normal release of glutamate” value [2] is listed as “inhibit the normal glutamate release” and the “effect on normal release of glutamate” value ([2]; listed as baclofen) is listed as “inhibits the normal release”.
In the case of `Fc1ccc(C(c2ccc(F)cc2)N2CCN(C/C=C/c3ccccc3)CC2)cc1` [Flunarizine], the ED50 (DBA/2 Mouse; oral) is reported as 48.1 mg/kg and the “anti-convulsant effect, in words” value (DBA/2 Mouse) is reported as “dose-dependent anti-convulsant effect”.
In the case of `C[C@]12N[C@H](Cc3ccccc31)c1ccccc12` [MK-801], the “toxic effects / clinical applicability” value [3] is given as “not clinically applicable because of serious toxic effects”.
With `COC(=O)C1=C(C)NC(C)=C(C(=O)OCCN(C)Cc2ccccc2)C1c1cccc([N+](=O)[O-])c1` (stereo not shown) [Nicardipine] the “Anticonvulsive effect (maximum), at 20-80 mg/kg” value (DBA/2 Mouse; [6]) was 30% and the “anticonvulsive effect (general statement)” value (DBA/2 Mouse; [6]) was “less than 40%”.
In the case of `COCCOC(=O)C1=C(C)NC(C)=C(C(=O)OC(C)C)C1c1cccc([N+](=O)[O-])c1` (stereo not shown) [Nimodipine, reference compound], the “inhibition of the massive release of glutamate during BCAO” value (from here on “inhibition”) [4] is reported as “only S-312-d was significantly effective; also recorded: neither nilvadipine nor nimodipine shows significant effect”, the “Anticonvulsive effect (maximum), at 20-80 mg/kg” value (DBA/2 Mouse; [6]) is reported as 40% and the “anticonvulsive effect (general statement)” value (DBA/2 Mouse; [6]) is reported as “less than 40%”.
For `COC(=O)C1=C(C)Nc2scc(CC(C)C)c2[C@@H]1c1cccc([N+](=O)[O-])c1` [S-312-1, methyl (-)-(4R)-4,7-dihydro-3-isobutyl-6-methyl-4-(3-nitrophenyl)thieno[2,3-b]pyridine-5-carboxylate], the “Anticonvulsive effect (maximum), at 10-80 mg/kg” value (DBA/2 Mouse; oral, 10-80 mg/kg, one hour before ultrasonic treatment) was 30% and the “anticonvulsive effect (general statement)” value (DBA/2 Mouse; [6]) was “less than 40%”.
In the case of `COC(=O)C1=C(C)Nc2scc(CC(C)C)c2[C@H]1c1cccc([N+](=O)[O-])c1` [S-312-d, methyl (+)-(4S)-4,7-dihydro-3-isobutyl-6-methyl-4-(3-nitrophenyl)thieno[2,3-b]pyridine-5-carboxylate], the “Ca-blocking effect on vascular smooth muscle” value (vascular smooth muscle) is given as “selective Ca-blocking effect on vascular smooth muscle”, the “effect on the normal resting release of glutamate” value [4] is given as “not the normal resting release; also recorded: without affecting the normal resting release of glutamate; also recorded: not the normal cerebral release of glutamate” and the “inhibition” value [4] is given as “only S-312-d was significantly effective; also recorded: inhibited the massive release of glutamate during BCAO; also recorded: inhibits specifically the massive release of glutamate during cerebral ischemia; also recorded: inhibiting specifically a massive release of cerebral glutamate from hippocampus”. For the same molecule, the “inhibition” value ([4]; listed as S-312-2) was “the massive release of cerebral glutamate”, the ED50 (DBA/2 Mouse; oral) was 17.6 mg/kg and the “anti-convulsant effect, in words” value (DBA/2 Mouse) was “inhibits sound-induced convulsion in DBA/2 mouse; also recorded: dose-dependent anti-convulsant effect; also recorded: potent inhibitory effect on a convulsion induced by sound stimulation in DBA/2 mice”. For the same molecule, the “anti-convulsant effect, in words” value (DBA/2 Mouse; listed as S-312-2) was “inhibit the both of a) the sound-induced convulsion”, the “protection of cerebral neurons against ischemic necrosis” value ([5]; pretreatment i.p., Table 2) was “significantly effective for the protection of cerebral neurons against ischemic necrosis of cells” and the “Density of Neurons, animals with 40-80 n/mm” value [5, 7] was 4. The “Density of Neurons, animals with 80-120 n/mm” value [5, 7] was 2, the “Density of Neurons, animals with <40 n/mm” value [5, 7] was 3 and the “Density of Neurons, animals with >120 n/mm” value [5, 7] was 3. For the same molecule, the “Density of Neurons, mean ± S.E.M” value ([5]; treated group (I), 0.01 mg/kg i.p., n = 12, p < 0.01 vs normal group) was 73 ± 12 n/mm, the “Density of Neurons, animals with 40-80 n/mm” value [5, 8] was 1 and the “Density of Neurons, animals with 80-120 n/mm” value [5, 8] was 4. The “Density of Neurons, animals with <40 n/mm” value [5, 8] was 2, the “Density of Neurons, animals with >120 n/mm” value [5, 8] was 6 and the “Density of Neurons, mean ± S.E.M” value ([5]; treated group (II), 0.1 mg/kg i.p., n = 13, p < 0.01 vs control group) was 114 ± 17 n/mm. For the same molecule, the “antihypertensive, peripheral, cerebral and coronary vasodilating actions” value [1] was “exhibit antihypertensive activity, as well as peripheral, cerebral, and coronary vasodilating actions”.
With `COC(=O)C1=C(C#N)NC(C)=C(C(=O)OC(C)C)C1c1cccc([N+](=O)[O-])c1` (stereo not shown) [nilvadipine, reference compound] the “inhibition” value [4] was “only S-312-d was significantly effective; also recorded: neither nilvadipine nor nimodipine shows significant effect”.
